Measurements as given in patent US8183271B2, “Tetrazole derivatives and their use for the treatment of cardiovascular diseases” (Bayer Intellectual Property GmbH, priority 2005, dated 2012).

Tests used:
saphenous artery rings = assay: Vasorelaxant effect in vitro (phenylephrine-contracted artery rings); format: cell-based, Rabbits; conditions: rabbit saphenous artery rings, contraction induced by phenylephrine
Protocol: Rabbits are anesthetized and sacrificed by intravenous injection of thiopental sodium (about 50 mg/kg) and exsanguinated. The saphenous artery is removed and divided into rings 3 mm wide. The rings are mounted singly on in each case a pair of triangular hooks open at the end and made of 0.3 mm-thick special wire (Remanium®). Each ring is placed under an initial tension in 5 ml organ baths with Krebs-Henseleit solution which is at 37° C., is gassed with 95% O2/5% CO2 and has the following composition: NaCl 119 mM; KCl 4.8 mM; CaCl2×2H2O 1 mM; MgSO4×7H2O 1.4 mM; KH2PO4 1.2 mM; NaHCO3 25 mM; glucose 10 mM; bovine serum albumin 0.001%. The force of contraction is detected with Statham UC2 cells, amplified and digitized via A/D converters (DAS-1802 HC, Keithley Instruments, Munich) and recorded in parallel on chart recorders. Contractions are induced by addition of phenylephrine.
After several (generally 4) control cycles, the substance to be investigated is added in each further run in increasing dosage, and the height of the contraction achieved under the influence of the test substance is compared with the height of the contraction reached in the last preceding run. The concentration necessary to reduce the contraction reached in the preceding control by 50% is calculated from this (IC50). The standard application volume is 5 μl. The proportion of DMSO in the bath solution corresponds to 0.1%.

[1] = biological target: T1, Heme-containing sGC (recombinant soluble guanylate cyclase) (Rattus norvegicus, UniProt P20595); assay: Stimulation of recombinant soluble guanylate cyclase (sGC) in vitro, heme-containing enzyme; format: biochemical; conditions: 0.0 μM Example 6
T1 construct: made in house
T1 sequence (P20595 1-619): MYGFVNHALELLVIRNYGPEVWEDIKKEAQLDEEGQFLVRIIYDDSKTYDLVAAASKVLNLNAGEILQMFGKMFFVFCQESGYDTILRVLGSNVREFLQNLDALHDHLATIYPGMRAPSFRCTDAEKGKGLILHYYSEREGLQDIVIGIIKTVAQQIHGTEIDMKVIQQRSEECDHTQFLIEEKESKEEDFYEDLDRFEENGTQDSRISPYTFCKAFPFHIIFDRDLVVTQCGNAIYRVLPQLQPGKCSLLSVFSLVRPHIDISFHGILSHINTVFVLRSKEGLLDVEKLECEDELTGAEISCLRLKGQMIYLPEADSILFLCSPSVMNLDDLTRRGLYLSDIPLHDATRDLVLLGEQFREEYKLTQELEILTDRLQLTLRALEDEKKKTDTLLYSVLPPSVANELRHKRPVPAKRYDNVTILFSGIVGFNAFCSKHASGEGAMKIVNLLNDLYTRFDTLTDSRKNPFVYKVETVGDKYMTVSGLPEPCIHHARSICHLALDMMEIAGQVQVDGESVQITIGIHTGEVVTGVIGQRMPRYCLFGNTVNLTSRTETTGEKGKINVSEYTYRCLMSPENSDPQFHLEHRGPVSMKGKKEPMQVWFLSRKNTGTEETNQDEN
T1 sequence (P19686 1-690 partner): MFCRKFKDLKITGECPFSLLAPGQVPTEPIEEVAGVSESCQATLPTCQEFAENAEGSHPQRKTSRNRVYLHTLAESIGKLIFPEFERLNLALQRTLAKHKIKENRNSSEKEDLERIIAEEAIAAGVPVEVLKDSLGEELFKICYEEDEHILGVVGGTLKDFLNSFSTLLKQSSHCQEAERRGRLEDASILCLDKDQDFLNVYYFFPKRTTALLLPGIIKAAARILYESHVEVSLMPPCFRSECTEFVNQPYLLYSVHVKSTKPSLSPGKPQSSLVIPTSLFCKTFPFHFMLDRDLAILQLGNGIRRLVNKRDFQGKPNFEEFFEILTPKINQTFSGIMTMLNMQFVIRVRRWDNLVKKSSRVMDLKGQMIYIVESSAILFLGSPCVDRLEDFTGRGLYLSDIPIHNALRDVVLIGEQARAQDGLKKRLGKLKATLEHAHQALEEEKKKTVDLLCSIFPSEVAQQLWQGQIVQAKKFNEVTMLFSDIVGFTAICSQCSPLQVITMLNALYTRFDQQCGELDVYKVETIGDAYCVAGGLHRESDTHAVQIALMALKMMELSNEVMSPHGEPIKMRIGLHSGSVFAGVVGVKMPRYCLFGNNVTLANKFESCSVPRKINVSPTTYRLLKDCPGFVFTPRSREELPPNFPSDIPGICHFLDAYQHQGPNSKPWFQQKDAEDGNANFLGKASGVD
Text: Hoenicka, E. M. Becker, H. Apeler, T. Sirichoke, H. Schroeder, R. Gerzer and J.-P. Stasch, “Purified soluble guanylyl cyclase expressed in a baculovirus/Sf9 system: Stimulation by YC-1, nitric oxide, and carbon oxide”, J. Mol. Med. 77 (1999), 14-23. The heme-free guanylate cyclase is obtained by adding Tween 20 to the sample buffer (0.5% in the final concentration).
(§1) The activation of sGC by a test substance is reported as n-fold stimulation of the basal activity.

[2] = biological target: T2, Heme-free sGC (recombinant soluble guanylate cyclase) (Rattus norvegicus, UniProt P20595); assay: Stimulation of recombinant soluble guanylate cyclase (sGC) in vitro, heme-free enzyme; format: biochemical; conditions: 10 μM ODQ, 0.0 μM Example 6
T2 construct: made in house
T2 sequence (P20595 1-619): T1 sequence (P20595 1-619)
T2 sequence (P19686 1-690 partner): T1 sequence (P19686 1-690 partner)
Protocol: Investigations on the stimulation of recombinant soluble guanylate cyclase (sGC) by the compounds according to the invention with and without sodium nitroprusside, and with and without the heme-dependent sGC inhibitor 1H-1,2,4-oxadiazole-(4,3a)-quinoxalin-1-one (ODQ) are carried out by the method described in detail in the following reference: M. Hoenicka, E. M. Becker, H. Apeler, T. Sirichoke, H. Schroeder, R. Gerzer and J.-P. Stasch, “Purified soluble guanylyl cyclase expressed in a baculovirus/Sf9 system: Stimulation by YC-1, nitric oxide, and […]”, J. Mol. Med. 77 (1999), 14-23. The heme-free guanylate cyclase is obtained by adding Tween 20 to the sample buffer (0.5% in the final concentration).
as §1

Compound: CC(C)(C)c1ccc(COc2ccccc2/C=C/C(CCc2ccc(-c3nnn[nH]3)cc2)Cc2ccc(C(=O)O)cc2)c(Cl)c1 (single isomer, unassigned) [Example 3, 4-((3E)-4-{2-[(4-tert-Butyl-2-chlorobenzyl)oxy]phenyl}-2-{2-[4-(1H-tetrazol-5-yl)phenyl]ethyl}but-3-en-1-yl)benzoic acid]
- IC50 (saphenous artery rings; Oryctolagus cuniculus): 0.682 µM

Compound: CC(C)(C)c1ccc(COc2ccccc2/C=C/C(CCc2ccc(-c3nnn[nH]3)cc2)Cc2ccc(C(=O)O)cc2)cc1 (single isomer, unassigned) [Example 5, 4-((3E)-4-{2-[(4-tert-Butylbenzyl)oxy]phenyl}-2-{2-[4-(1H-tetrazol-5-yl)phenyl]ethyl}but-3-en-1-yl)benzoic acid]
- IC50 (saphenous artery rings): 2.51 µM

Compound: O=C(O)c1ccc(CCC(/C=C/c2ccccc2OCCCCCc2ccccc2)Cc2ccc(-c3nnn[nH]3)cc2)cc1 (single isomer, unassigned) [Example 14, 4-{(4E)-5-{2-[(5-Phenylpentyl)oxy]phenyl}-3-[4-(1H-tetrazol-5-yl)benzyl]pent-4-en-1-yl}benzoic acid]
- IC50 (saphenous artery rings; Oryctolagus cuniculus): 1.32 µM

Compound: CC(C)(C)c1ccc(COc2ccccc2/C=C/C(CCc2ccc(C(=O)O)cc2)Cc2ccc(-c3nnn[nH]3)cc2)cc1 (single isomer, unassigned) [Example 23, 4-{(4E)-5-{2-[(4-tert-Butylbenzyl)oxy]phenyl}-3-[4-(1H-tetrazol-5-yl)benzyl]pent-4-en-1-yl}benzoic acid]
- IC50 (saphenous artery rings): 3.89 µM

Compound: CC(C)(C)c1ccc(COc2ccccc2/C=C/C(CCc2ccc(C(=O)O)cc2)Cc2ccc(-c3nnn[nH]3)cc2)cc1 (single isomer, unassigned) [Example 24, 4-{(4E)-5-{2-[(4-tert-Butylbenzyl)oxy]phenyl}-3-[4-(1H-tetrazol-5-yl)benzyl]pent-4-en-1-yl}benzoic acid]
- IC50 (saphenous artery rings): 0.102 µM

Compound: CC(C)(C)c1ccc(COc2ccccc2/C=C/C(CCCCc2nnn[nH]2)CCc2ccc(C(=O)O)cc2)cc1 (single isomer, unassigned) [Example 26, 4-[3-((E)-2-{2-[(4-tert-Butylbenzyl)oxy]phenyl}vinyl)-7-(1H-tetrazol-5-yl)heptyl]benzoic acid]
- IC50 (saphenous artery rings): 0.559 µM

Compound: CC(C)(C)c1ccc(COc2ccccc2/C=C/C(CCCCc2nnn[nH]2)CCc2ccc(C(=O)O)cc2)cc1 (single isomer, unassigned) [Example 27, 4-[3-((E)-2-f{2-[(4-tert-Butylbenzyl)oxy]phenyl}vinyl)-7-(1H-tetrazol-5-yl)heptyl]benzoic acid]
- IC50 (saphenous artery rings): 0.0097 µM

Compound: CC(C)(C)c1ccc(COc2ccccc2/C=C/C(CCCCC(=O)O)CCc2ccc(-c3nnn[nH]3)cc2)cc1 (single isomer, unassigned) [Example 29, (7E)-8-{2-[(4-tert-Butylbenzyl)oxy]phenyl}-6-{2-[4-(1H-tetrazol-5-yl)phenyl]ethyl}oct-7-enoic acid]
- IC50 (saphenous artery rings; Oryctolagus cuniculus): 1.99 µM

Compound: CC(C)(C)c1ccc(COc2ccccc2/C=C/C(CCCCC(=O)O)Cc2ccc(-c3nnn[nH]3)cc2)cc1 (single isomer, unassigned) [Example 36, (7E)-8-{2-[(4-tert-Butylbenzyl)oxy]phenyl}-6-[4-(1H-tetrazol-5-yl)benzyl]oct-7-enoic acid]
- IC50 (saphenous artery rings; Oryctolagus cuniculus): 0.76 µM

Compound: CCN(CC)[N+]([O-])=NO [DEA/NO, 2-(N,N-diethylamino)diazenolate 2-oxide, reference compound]
- Stimulation (n-fold) Heme-containing sGC by DEA/NO alone ([1]; 0.1 μM DEA/NO): 64.1 n-fold

Compound: COc1ccc(CCc2ccc(F)cc2/C=C\C(CCc2ccc(C(=O)O)cc2)Cc2ccc(-c3nnn[nH]3)cc2)cc1 (centres unmarked) [Example 17, 4-{(4Z)-5-{5-Fluoro-2-[2-(4-methoxyphenyl)ethyl]phenyl}-3-[4-(1H-tetrazol-5-yl)benzyl]pent-4-en-1-yl}benzoic acid]
- IC50 (saphenous artery rings; Oryctolagus cuniculus): 5.8 µM

Compound: COc1ccc(CCc2ccc(F)cc2/C=C/C(CCc2ccc(C(=O)O)cc2)Cc2ccc(-c3nnn[nH]3)cc2)cc1 (centres unmarked) [Example 18, 4-{(4E)-5-{5-Fluoro-2-[2-(4-methoxyphenyl)ethyl]phenyl}-3-[4-(1H-tetrazol-5-yl)benzyl]pent-4-en-1-yl}benzoic acid]
- IC50 (saphenous artery rings; Oryctolagus cuniculus): 0.89 µM

Compound: O=C(O)c1ccc(CCC(/C=C/c2ccccc2OCc2ccc(-c3ccc(C(F)(F)F)cc3)cc2)Cc2ccc(-c3nnn[nH]3)cc2)cc1 (centres unmarked) [Example 21, 4-[(4E)-3-[4-(1H-Tetrazol-5-yl)benzyl]-5-(2-{[4′-(trifluoromethyl)biphenyl-4-yl]-methoxy}phenyl)pent-4-en-1-yl]benzoic acid]
- IC50 (saphenous artery rings; Oryctolagus cuniculus): 0.372 µM

Compound: O=C(O)c1ccc(CCC(/C=C/c2ccccc2OCc2ccc(OC(F)(F)F)cc2)CCCCc2nnn[nH]2)cc1 (centres unmarked) [Example 38]
- IC50 (saphenous artery rings; Oryctolagus cuniculus): 0.567 µM

Compound: O=C(O)c1ccc(CCC(/C=C/c2ccccc2OCc2cc(C(F)(F)F)cc(C(F)(F)F)c2)CCCCc2nnn[nH]2)cc1 (centres unmarked) [Example 39]
- IC50 (saphenous artery rings; Oryctolagus cuniculus): 0.15 µM

Compound: O=c1onc2cnc3ccccc3n12 [ODQ, 1H-1,2,4-oxadiazole-(4,3a)-quinoxalin-1-one, reference compound]
- Stimulation (n-fold) Heme-containing sGC with ODQ alone ([1]; 10 μM ODQ): 2.4 n-fold
- Stimulation (n-fold) Heme-free sGC with ODQ alone [2]: 1.2 n-fold
